{"source": "BindingDB's records for doi:10.1021/jm9602571", "about": "(Dupont Pharmaceuticals, 1996)", "target": "T1, Dimer of Gag-Pol polyprotein [501-599] (Human immunodeficiency virus 1, UniProt P03367)", "T1 construct": "501-599", "assay": "Protease Inhibition Assay", "details": "pH 5.5; 37 °C"}
{"smiles": "Nc1cccc(CN2C(=O)N(Cc3cccc(N)c3)[C@H](Cc3ccccc3)[C@H](O)[C@@H](O)[C@H]2Cc2ccccc2)c1", "values": [{"measurement": "Ki", "result": 0.34, "unit": "nM"}]}
{"smiles": "O=C1N(CC2CCCC2)[C@H](Cc2ccccc2)[C@H](O)[C@@H](O)[C@@H](Cc2ccccc2)N1CC1CCCC1", "values": [{"measurement": "Ki", "result": 4, "unit": "nM"}]}
